Assay results: US12378249B2, “Isoquinoline compounds and uses thereof” (Genentech, Inc., priority 2018, dated 2025)

Biological target: HPK1 (Homo sapiens (Human), UniProt Q92918, S171E/T165E)
Assay: HPK1-FL HTRF Enzymatic Assay (HTRF)
Assay type: biochemical
Settings: HPK full length T165E S171E 0.125 nM, ATP 1 mM, Biotin-SLP76 100 nM, read-out: HPK1 Ki (nM), H = HTRF
Method: Exemplary compounds of Formula (I) were tested to assess compound inhibition of HPK-1. The Ki for each exemplary compound was determined
Example B1: HPK1-FL HTRF Enzymatic Assay (“HTRF”)
HPK-FL enzyme phosphorylates Biotin-SLP-76 substrate in the presence of ATP at 1 mM and varying concentrations of test compound. Product is detected by FRET using Eu-anti-pSLP76 Ab and SA-XL665. Also see www.cisbio.com/HTRF for additional HTRF technology information.
• Echo555 compound dispenser • Agilent Bravo • Perkin Elmer Envision Final Assay Conditions:
Materials: • Assay plate: White ProxiPlate 384 F (PerkinElmer cat #6008289) • Kinase: HPK full length double mutant • Substrate: Biotin-SLP76 • ATP: 100 mM ATP • BSG: 2% BSG • DMSO: DMSO (Sigma cat #34869-100ML) • Reaction Buffer: H2O/50 mM HEPES, pH 7.5/10 mM MgCl2/2 mM TCEP/0.01% Brij-35/0.01% BSG • Detection mix:Eu-anti-pSLP76/SA-XL665 (Cisbio, #610SAXAC) Assay Procedure Ki determination:
To a 384 well Proxiplate with 80 nL compound or DMSO spotted on was added 4 μl/well kinase mix. The mixture was preincubated for 30 minutes and then 4 μl/well substrate mix was added. The solution was incubated for 60 min and then 4 μl/well detection mix was added. The solution was incubated for another 60 min. The plates were then loaded onto a Perkin Elmer Envision and the TR-FRET signal was measured at 615 and 665 nm. A ratio of […] was used to calculate the % activity at each concentration of compound.

HPK1, sequence (Q92918 whole entry T165E/S171E): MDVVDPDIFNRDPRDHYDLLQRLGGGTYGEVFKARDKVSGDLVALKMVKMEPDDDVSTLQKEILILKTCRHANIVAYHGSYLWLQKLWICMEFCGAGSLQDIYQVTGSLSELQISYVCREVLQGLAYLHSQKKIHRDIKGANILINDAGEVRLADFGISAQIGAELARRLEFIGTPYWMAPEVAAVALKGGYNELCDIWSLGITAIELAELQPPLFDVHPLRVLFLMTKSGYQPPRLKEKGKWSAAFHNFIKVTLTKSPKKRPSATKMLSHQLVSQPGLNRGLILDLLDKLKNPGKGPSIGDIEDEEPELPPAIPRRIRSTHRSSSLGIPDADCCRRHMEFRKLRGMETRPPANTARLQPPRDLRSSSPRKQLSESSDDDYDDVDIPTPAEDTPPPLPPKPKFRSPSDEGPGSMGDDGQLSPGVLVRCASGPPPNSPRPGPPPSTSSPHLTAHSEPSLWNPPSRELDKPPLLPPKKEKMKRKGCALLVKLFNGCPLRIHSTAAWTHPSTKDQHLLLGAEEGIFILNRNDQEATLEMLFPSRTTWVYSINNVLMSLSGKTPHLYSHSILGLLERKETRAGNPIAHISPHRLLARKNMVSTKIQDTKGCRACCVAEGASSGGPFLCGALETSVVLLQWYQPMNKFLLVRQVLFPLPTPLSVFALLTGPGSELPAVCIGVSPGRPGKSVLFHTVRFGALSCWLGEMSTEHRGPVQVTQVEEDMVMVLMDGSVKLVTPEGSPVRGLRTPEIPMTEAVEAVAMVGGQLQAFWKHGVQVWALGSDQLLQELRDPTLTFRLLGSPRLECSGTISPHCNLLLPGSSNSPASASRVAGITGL

Structure (SMILES)	Ki
Cc1c(N)cncc1-c1cc2cc(Nc3cc4n(n3)CC(=O)N(C)CC4(F)F)ncc2cc1F [Compound 127, 2-[[6-(5-amino-4-methyl-3-pyridyl)-7-fluoro-3-isoquinolyl]amino]-4,4-difluoro-6-methyl-5,8-dihydropyrazolo[1,5-d][1,4]diazepin-7-one]	0.04 nM
Cc1c(N)cncc1-c1ccc2cnc(Nc3cc4n(n3)CC(=O)N(C(C)C)CC4)cc2c1 [Compound 129, 2-[[6-(5-amino-4-methyl-3-pyridyl)-3-isoquinolyl]amino]-6-isopropyl-5,8-dihydro-4H-pyrazolo[1,5-d][1,4]diazepin-7-one]	0.04 nM
Cc1ccncc1-c1cc2cc(Nc3cc4n(n3)CC(=O)N(C(C)C)CC4)ncc2cc1F [Compound 131, 2-[[7-fluoro-6-(4-methyl-3-pyridyl)-3-isoquinolyl]amino]-6-isopropyl-5,8-dihydro-4H-pyrazolo[1,5-d][1,4]diazepin-7-one]	2.5 nM
Cc1ncc(-c2cc3cc(Nc4cc5n(n4)CC(=O)N(C(C)C)CC5)ncc3c(O)c2F)c(C)c1N [Compound 133, 2-((6-(5-amino-4,6-dimethylpyridin-3-yl)-7-fluoro-8-hydroxyisoquinolin-3-yl)amino)-6-isopropyl-5,6-dihydro-4H-pyrazolo[1,5-d][1,4]diazepin-7(8H)-one]	3.7 nM
Cc1ccncc1-c1cc2cc(Nc3cc4n(n3)CC3=NOC(C)(C)N3CC4)ncc2cc1F [Compound 134, N-(7-fluoro-6-(4-methylpyridin-3-yl)isoquinolin-3-yl)-3,3-dimethyl-5,6-dihydro-3H,11H-[1,2,4]oxadiazolo[4,3-a]pyrazolo[1,5-d][1,4]diazepin-8-amine]	3.4 nM
Cc1c(N)cncc1-c1cc2cc(Nc3cc4n(n3)CC(=O)N(CCN3CCOCC3)CC4)ncc2cc1F [Compound 136, 2-((6-(5-amino-4-methylpyridin-3-yl)-7-fluoroisoquinolin-3-yl)amino)-6-(2-morpholinoethyl)-5,6-dihydro-4H-pyrazolo[1,5-d][1,4]diazepin-7(8H)-one]	0.028 nM
COc1cc(C)c(-c2cc3cc(Nc4cc5n(n4)CC(=O)N(C)CC5)ncc3cc2F)cn1 [Compound 137, 2-((7-fluoro-6-(6-methoxy-4-methylpyridin-3-yl)isoquinolin-3-yl)amino)-6-methyl-5,6-dihydro-4H-pyrazolo[1,5-d][1,4]diazepin-7(8H)-one]	2.2 nM
Cc1c(-c2cc3cc(Nc4cc5n(n4)CC(=O)N(C(C)C)CC5)ncc3cc2F)cnc2oc(=O)[nH]c12 [Compound 142, 6-(7-fluoro-3-((6-isopropyl-7-oxo-5,6,7,8-tetrahydro-4H-pyrazolo[1,5-d][1,4]diazepin-2-yl)amino)isoquinolin-6-yl)-7-methyloxazolo[5,4-b]pyridin-2(1H)-one]	1.9 nM
Cc1c(N)cncc1-c1cc2cc(Nc3cc4n(n3)CC(=O)NCC4)ncc2cc1F [Compound 144, 2-((6-(5-amino-4-methylpyridin-3-yl)-7-fluoroisoquinolin-3-yl)amino)-5,6-dihydro-4H-pyrazolo[1,5-d][1,4]diazepin-7(8H)-one]	0.062 nM
Cc1c(N)cncc1-c1ccc2cnc(Nc3cc4n(n3)CC(=O)N(C(C)C)CC4)cc2c1Cl [Compound 152, 2-((6-(5-amino-4-methylpyridin-3-yl)-5-chloroisoquinolin-3-yl)amino)-6-isopropyl-5,6-dihydro-4H-pyrazolo[1,5-d][1,4]diazepin-7(8H)-one]	0.028 nM
COCCN1CCc2cc(Nc3cc4cc(-c5cncc(N)c5C)c(F)cc4cn3)nn2CC1=O [Compound 156, 2-((6-(5-amino-4-methylpyridin-3-yl)-7-fluoroisoquinolin-3-yl)amino)-6-(2-methoxyethyl)-5,6-dihydro-4H-pyrazolo[1,5-d][1,4]diazepin-7(8H)-one]	0.017 nM
Cc1c(N)cncc1-c1cc2cc(Nc3cc4n(n3)Cc3nccn3CC4)ncc2c(F)c1F [Compound 157, N-(6-(5-amino-4-methylpyridin-3-yl)-7,8-difluoroisoquinolin-3-yl)-5,6-dihydro-11H-imidazo[1,2-a]pyrazolo[1,5-d][1,4]diazepin-8-amine]	0.014 nM
Cc1c(N)cncc1-c1cc2cc(Nc3cc4n(n3)CC(=O)N(CC(C)(C)O)CC4)ncc2cc1F [Compound 158, 2-((6-(5-amino-4-methylpyridin-3-yl)-7-fluoroisoquinolin-3-yl)amino)-6-(2-hydroxy-2-methylpropyl)-5,6-dihydro-4H-pyrazolo[1,5-d][1,4]diazepin-7(8H)-one]	0.023 nM
Cc1c(-c2cc3cc(Nc4cc5n(n4)Cc4nccn4CC5)ncc3c(F)c2F)cnc2c1NCCO2 [Compound 161, N-(7,8-difluoro-6-(8-methyl-2,3-dihydro-1H-pyrido[2,3-b][1,4]oxazin-7-yl)isoquinolin-3-yl)-5,6-dihydro-11H-imidazo[1,2-a]pyrazolo[1,5-d][1,4]diazepin-8-amine]	0.014 nM

Other lines, results leading:

Ki	Structure (SMILES)
0.02 nM	Cc1c(-c2cc3cc(Nc4cc5n(n4)CC(=O)N(CCN4CCOCC4)CC5)ncc3cc2F)cnc2c1NCCO2 [Compound 132, 2-[[7-fluoro-6-(8-methyl-2,3-dihydro-1H-pyrido[2,3-b][1,4]oxazin-7-yl)-3-isoquinolyl]amino]-6-(2-morpholinoethyl)-5,8-dihydro-4H-pyrazolo[1,5-d][1,4]diazepin-7-one]
0.038 nM	Cc1c(-c2cc3cc(Nc4cc5n(n4)CC(=O)N(C(C)C)CC5)ncc3c(F)c2F)cnc2c1NCCO2 [Compound 135, 2-((7,8-difluoro-6-(8-methyl-2,3-dihydro-1H-pyrido[2,3-b][1,4]oxazin-7-yl)isoquinolin-3-yl)amino)-6-isopropyl-5,6-dihydro-4H-pyrazolo[1,5-d][1,4]diazepin-7(8H)-one]
0.013 nM	Cc1c(-c2cc3cc(Nc4cc5n(n4)CC(=O)N(C)CC5)ncc3c(F)c2F)cnc2c1NCCO2 [Compound 138, 2-((7,8-difluoro-6-(8-methyl-2,3-dihydro-1H-pyrido[2,3-b][1,4]oxazin-7-yl)isoquinolin-3-yl)amino)-6-methyl-5,6-dihydro-4H-pyrazolo[1,5-d][1,4]diazepin-7(8H)-one]
0.013 nM	Cc1c(-c2cc3cc(Nc4cc5n(n4)Cc4nccn4CC5)ncc3cc2F)cnc2c1NCCO2 [Compound 143, N-(7-fluoro-6-(8-methyl-2,3-dihydro-1H-pyrido[2,3-b][1,4]oxazin-7-yl)isoquinolin-3-yl)-5,6-dihydro-11H-imidazo[1,2-a]pyrazolo[1,5-d][1,4]diazepin-8-amine]
0.013 nM	Cc1c(-c2cc3cc(Nc4cc5n(n4)CC(=O)N(CCO)CC5)ncc3cc2F)cnc2c1NCCO2 [Compound 145, 2-((7-fluoro-6-(8-methyl-2,3-dihydro-1H-pyrido[2,3-b][1,4]oxazin-7-yl)isoquinolin-3-yl)amino)-6-(2-hydroxyethyl)-5,6-dihydro-4H-pyrazolo[1,5-d][1,4]diazepin-7(8H)-one]
0.034 nM	Cc1c(-c2ccc3cnc(Nc4cc5n(n4)CC(=O)N(CCO)CC5)cc3c2F)cnc2c1NCCO2 [Compound 146, 2-((5-fluoro-6-(8-methyl-2,3-dihydro-1H-pyrido[2,3-b][1,4]oxazin-7-yl)isoquinolin-3-yl)amino)-6-(2-hydroxyethyl)-5,6-dihydro-4H-pyrazolo[1,5-d][1,4]diazepin-7(8H)-one]
0.013 nM	Cc1c(-c2cc3cc(Nc4cc5n(n4)Cc4nncn4CC5)ncc3cc2F)cnc2c1NCCO2 [Compound 151, N-(7-fluoro-6-(8-methyl-2,3-dihydro-1H-pyrido[2,3-b][1,4]oxazin-7-yl)isoquinolin-3-yl)-5,6-dihydro-11H-pyrazolo[1,5-d][1,2,4]triazolo[4,3-a][1,4]diazepin-8-amine]
0.013 nM	COCCN1CCc2cc(Nc3cc4cc(-c5cnc6c(c5C)NCCO6)c(F)cc4cn3)nn2CC1=O [Compound 155, 2-((7-fluoro-6-(8-methyl-2,3-dihydro-1H-pyrido[2,3-b][1,4]oxazin-7-yl)isoquinolin-3-yl)amino)-6-(2-methoxyethyl)-5,6-dihydro-4H-pyrazolo[1,5-d][1,4]diazepin-7(8H)-one]
0.015 nM	Cc1c(N)cncc1-c1cc2cc(Nc3cc4n(n3)CC(=O)N(CCO)CC4)ncc2cc1F [Compound 159, 2-((6-(5-amino-4-methylpyridin-3-yl)-7-fluoroisoquinolin-3-yl)amino)-6-(2-hydroxyethyl)-5,6-dihydro-4H-pyrazolo[1,5-d][1,4]diazepin-7(8H)-one]
0.013 nM	Cc1c(-c2cc3cc(Nc4cc5n(n4)CC(=O)NCC5)ncc3cc2F)cnc2c1NCCO2 [Compound 160, 2-((7-fluoro-6-(8-methyl-2,3-dihydro-1H-pyrido[2,3-b][1,4]oxazin-7-yl)isoquinolin-3-yl)amino)-5,6-dihydro-4H-pyrazolo[1,5-d][1,4]diazepin-7(8H)-one]
0.43 nM	Cc1c(-c2cc3cc(Nc4cc5n(n4)CC(=O)N(C)CC5)ncc3cc2F)cnc2c1N(C)CCO2 [Compound 162, 2-((6-(1,8-dimethyl-2,3-dihydro-1H-pyrido[2,3-b][1,4]oxazin-7-yl)-7-fluoroisoquinolin-3-yl)amino)-6-methyl-5,6-dihydro-4H-pyrazolo[1,5-d][1,4]diazepin-7(8H)-one]
